The text below walks through data of patent US8143212B2 (Vicuron Pharmaceuticals Inc., priority 2002, dated 2012).

Converted amounts (≈) assume the structure as drawn. “And” between values parts separate entries of the source, which are not always exact repeats. Identical values can stand only once. Like-named read-outs stand apart in the source and are kept apart here.

Data set [1] has as its system Candida albicans SKF 2270. The data set is described as follows: MIC by broth microdilution (NCCLS) (Tables 42, 44). The class given is cell-based.
A short description of the next data set: CR-BSI trial: safety. To be noted: in vivo.
Data set [2] deals with gram positive bacteria. The data set is described as follows: MIC by broth microdilution (NCCLS), with or without 30% bovine serum (Table 42). The class given is cell-based. Here is the method: (§1) Before dissolution, each sample was analyzed by HPLC and quantified.
(§2) The microorganisms used were reference strains obtained from the American Type Culture Collection (ATCC) (Rockville, Md.), SmithKline and French Laboratories (SKF), and the Upjohn Company (UC) (Kalamazoo, Mich.).
(§3) MICs were determined by the broth microdilution methodology following the standard NCCLS procedure (NCCLS Document M7-A6, Vol. 23, No. 2, “Methods for dilution antimicrobial susceptibility tests for bacteria that grow aerobically.” Approved Guideline. January 2003, which can be herein incorporated by reference in its entirety), with or without 30% adult bovine serum (BS) (PAA Laboratories GMBH, Haidmannweg Pasching Austria), using bacterial innocula at approximately 5×10^5 CFU/ml. The media employed included cation-adjusted Müller Hinton broth (Difco Laboratories, Detroit, Mich.) that was used that was adjusted with CaCl2 and MgCl2 to a final concentration of 20 mg/L and 10 mg/L, respectively. Tests were read following 20-24 hours of incubation at 35° C.
On the technique in general: Dilution methods test growth across graded concentrations, often in twofold steps.

For data set [3], the system named is N,N′-diacetyl-Lys-D-Ala-D-Ala. The data set is described as follows: Isothermal titration calorimetry of tri-peptide binding, with and without HSA (Table 39). The following applies: for Kd: read-out: Kdiss. For orientation: Isothermal titration calorimetry measures the heat released or taken up as one component is titrated into another.
Method: Antibiotics and peptides were dissolved in aqueous buffer (20 mM Na phosphate, 150 mM NaCl, pH 7.4) containing HSA, with gentle stirring immediately before each experiment. Peptide concentrations were determined by weight. […] HSA concentrations were determined by UV absorbance (HSA, ε280=37,700; A280^1%=5.44). Spectra were recorded at room temperature in 1 cm pathlength quartz cuvettes using Shimadzu UV-160A or UV-1601 spectrophotometers, with samples diluted quantitatively with buffer if necessary to give absorbance in the 0.1-1 A range.
Isothermal titration calorimetry was performed using a Microcal VP-ITC instrument at 25° C. and 37° C. using standard operating procedures. […] Samples were degassed gently prior to loading to prevent bubble formation in the calorimeter cell. […] Control experiments involved injection of ligand into buffer under identical conditions to determine heats of peptide dilution, and these values were used for correction of raw binding data prior to analysis.
In another data set the test system is Staph. aureus. Nature of the data set: ED50 against Staph. aureus murine septicaemias (Table 2). It is filed as in vivo. The following applies: Staphylococcus aureus, sc, 10 min.
For a further data set, the system named is gram-negative bacteria. The data set is described as follows: MIC by broth microdilution (NCCLS) (Table 42). It is filed as cell-based. Here is the method:
as §1, §2, §3

The test system of data set [4] is panel of gram-positive bacteria. Nature of the data set: MIC by broth microdilution (NCCLS) of IsoB0 and reference compounds (Table 44). It is filed as cell-based. Here is the method: Müller Hinton broth (Difco Laboratories, Detroit, Mich., USA) adjusted with CaCl2 and MgCl2 to a final concentrations of 20 mg/L and 10 mg/L respectively.
The microorganisms used are reference standard strains from the American Type Culture Collection (ATCC, Rockville, USA), Smith Kline and French Laboratories (SKF) and the Upjohn Company (UC, Kalamazoo, Mich., USA).
(§4) MICs were determined by the broth microdilution methodology following the standard NCCLS procedure, with or without 30% bovine serum, using bacterial inocula of approximately 5×10^5 CFU/mL. Tests were read after 20-24 h incubation at 35° C.

For data set [5], the system named is Escherichia coli, Proteus vulgaris, Pseudomonas aeruginosas. The data set is described as follows: MIC by broth microdilution (NCCLS) of IsoB0 and reference compounds (Table 44), non-gram-positive bacterial strains. It is filed as cell-based. Here is the method: as §4
Data set [6] concerns catheter-related blood stream infection (CR-BSI) due to gram-positive bacterial pathogens. Nature of the data set: CR-BSI trial: efficacy (overall, clinical, microbiological response). The class given is in vivo, human. To be noted: microbiological ITT population at TOC; dalbavancin 1000 mg Day 1 + 500 mg Day 8 IV; vancomycin 1000 mg IV every 12 hours. Here is the method:
Patients with CR-BSI due to suspected or known Gram-positive pathogen(s) who met the inclusion/exclusion criteria were randomized to one of two treatment arms in this open-label, comparative, multi-center study. Dalbavancin was administered once weekly in weekly dalbavancin and comparator (vancomycin) was administered daily in vancomycin. Catheter removal was required for patients with Staphylococcus aureus infection; catheter management was left to the Investigator's discretion for patients with coagulase-negative staphylococci (CoNS) infection. Efficacy was clinically based on the improvement or resolution of clinical signs and symptoms of CR-BSI such that no additional antibacterials were warranted, and microbiologically on the eradication or presence of the baseline or other pathogens.
The treatment lasted for 14 days for patients with S. aureus infection, and 7 to 14 days for all other pathogens. […] Vancomycin was administered intravenously with a 1000 mg dose every 12 hours (or dose-adjusted based on drug levels).
Efficacy was evaluated based on clinical and microbiological responses.

Data set [7] deals with gram positive bacteria. The following applies: NCCLS M100 S-12, cited from earlier work.
The subject of the next data set is S aureus. Nature of the data set: MIC, microbiological activity (Tables 2, 3). To be noted: Staphylococcus aureus, read-out: MIC. The class given is cell-based.
Data set [8] in a line: ESI-MS of multimers in solution (concentration, pH, ionic strength). The class given is physicochemical.
Method: Experiments were performed using an Applied Biosystem API III+ mass spectrometer equipped with a TurboIonSpray source, a Triple Quadrupole analyzer, operating in positive ion mode.
The mass spectra were obtained in electrospray positive mode on a Finnigan LCQ^Deca ion trap instrument previously tuned and calibrated in electrospray mode using Ultramark 1621, caffeine and MRFA (L-metionyl-arginyl-phenilalanyl-arginine).
The mass spectra were obtained in electrospray positive mode on a Finnigan LCQ^Deca ion trap instrument previous tuned and calibrated in electrospray mode using Ultramark 1621, caffeine and MRFA (L-metionyl-arginyl-phenilalanyl-arginine).
The target of another data set is human albumin (Homo sapiens, UniProt P02768). Nature of the data set: Protein binding by isothermal titration microcalorimetry (Tables 27, 28). To be noted: for Calculated percent Binding: Human albumin (6×10^−4 M).
In another data set the test system is human α-glycoprotein. The data set is described as above. To be noted: for Calculated percent Binding: Human α-glycoprotein ([…]10^−5 M).
Where [9] appears, read: Candida albicans SKF2270 (Table 44).
The mark [10] stands for this setting: Enterococcus faecalis ATCC 7080.
Setting [11] is: Enterococcus faecalis, ATCC29212.
Setting [12] is: Staphylococcus aureus, ATCC19636.
[13] abbreviates: Staphylococcus aureus, ATCC29213.
The mark [14] stands for this setting: Staphylococcus epidermidis, ATCC12228.
Setting [15] is: E. faecalis ATCC29212 ref. strain.
The mark [16] stands for this setting: S. aureus ATCC 29213 ref. strain.

Chain of human albumin (P02768 25-609): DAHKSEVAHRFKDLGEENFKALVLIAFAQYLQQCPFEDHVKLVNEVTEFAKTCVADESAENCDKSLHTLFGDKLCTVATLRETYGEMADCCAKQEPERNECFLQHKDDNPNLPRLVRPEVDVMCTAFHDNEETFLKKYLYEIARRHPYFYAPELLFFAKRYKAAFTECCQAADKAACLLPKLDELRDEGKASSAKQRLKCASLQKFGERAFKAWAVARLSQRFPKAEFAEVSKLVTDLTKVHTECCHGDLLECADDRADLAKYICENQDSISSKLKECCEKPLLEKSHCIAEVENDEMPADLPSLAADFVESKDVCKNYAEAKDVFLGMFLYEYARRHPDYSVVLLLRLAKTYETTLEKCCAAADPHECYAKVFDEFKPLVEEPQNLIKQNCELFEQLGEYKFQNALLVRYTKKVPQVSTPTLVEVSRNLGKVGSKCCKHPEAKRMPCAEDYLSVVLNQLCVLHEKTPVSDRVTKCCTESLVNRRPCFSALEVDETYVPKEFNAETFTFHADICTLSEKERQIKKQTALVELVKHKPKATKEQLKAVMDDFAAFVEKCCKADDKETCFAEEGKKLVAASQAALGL
Method for human albumin: (§5) Integrated heat effects, after correction for heats of dilution, were analyzed by non-linear regression using a simple single-site binding model with the standard Microcal ORIGIN software package. Raw data (μcal/sec) for each injection were integrated to give the total heat effect per addition, then divided by amount of injectant to give kcal/mole of injectant. The same integration was applied for control dilution effects, and this was subtracted from the actual titration data. This provided a differential of the binding curve in which the extent of binding is proportional to the total heat liberated (or absorbed). This was then analyzed by non-linear regression methods in terms of various standard binding models. The simplest model assumes simple non-competitive binding equilibrium, and gives three parameters:
Method for human α-glycoprotein: as §5

For `CN[C@H](CC(C)C)C(=O)N[C@H]1C(=O)N[C@@H](CC(N)=O)C(=O)N[C@H]2C(=O)N[C@H]3C(=O)N[C@H](C(=O)N[C@H](C(=O)O)c4cc(O)cc(O)c4-c4cc3ccc4O)[C@H](O)c3ccc(c(Cl)c3)Oc3cc2cc(c3O[C@@H]2O[C@H](CO)[C@@H](O)[C@H](O)[C@H]2O[C@H]2C[C@](C)(N)[C@H](O)[C@H](C)O2)Oc2ccc(cc2Cl)[C@H]1O` [Vancomycin], the MIC (commonly the lowest concentration that inhibits growth of the organism) is above 128 mg/L in data set [1] (setting [9]); above 128 mg/L in [1] (Candida albicans, SKF2270); 1 µg/mL (≈ 0.69 µM) against gram positive bacteria [2]; at most 0.125 µg/mL against gram positive bacteria [2] (Bacillus subtilis ATCC 6633); 1 µg/mL (≈ 0.69 µM) in the data set with gram positive bacteria [2] (setting [10]); 2 µg/mL (≈ 1.38 µM) in the data set on gram positive bacteria [2] (setting [11]). In addition, the MIC against gram positive bacteria [2] (setting [12]) is 1 µg/mL (≈ 0.69 µM); in the data set with gram positive bacteria [2] (setting [13]) it was 2 µg/mL (≈ 1.38 µM); in the data set on gram positive bacteria [2] (setting [14]), 2 µg/mL (≈ 1.38 µM); against gram positive bacteria [2] (Streptococcus pneumoniae, UC41), 0.5 µg/mL (≈ 0.345 µM); in the data set on gram-negative bacteria, above 128 µg/mL; against gram-negative bacteria (Escherichia coli) it was above 128 µg/mL. The MIC was above 128 µg/mL in the data set with gram-negative bacteria (Escherichia coli, ATCC25922); above 128 µg/mL against gram-negative bacteria (Proteus vulgaris ATCC 881); at most 0.125 µg/mL in data set [4] (Bacillus subtilis ATCC 6633); 1 µg/mL (≈ 0.69 µM) in [4] (setting [10]); 2 µg/mL (≈ 1.38 µM) in data set [4] (setting [11]); 1 µg/mL (≈ 0.69 µM) in data set [4] (setting [12]). Also, the MIC was 2 µg/mL (≈ 1.38 µM) in data set [4] (setting [13]); 2 µg/mL (≈ 1.38 µM) in data set [4] (setting [14]); 0.5 µg/mL (≈ 0.345 µM) in data set [4] (Streptococcus pneumoniae, UC41); 1 µg/mL (≈ 0.69 µM) in [4] (Streptococcus pyogenes); above 128 µg/mL in data set [5]; above 128 µg/mL in data set [5] (Escherichia coli). Also, the MIC was above 128 µg/mL in data set [5] (Escherichia coli, ATCC25922); above 128 µg/mL in data set [5] (Proteus vulgaris ATCC 881); 0.5 µg/mL (≈ 0.345 µM) in the data set on S aureus (MRSA Staph. aureus 3817); 0.5 µg/mL (≈ 0.345 µM) in the data set on S aureus (MSSA Staph. aureus Smith 819). In addition, the “patients with AEs that led to discontinuation of study drug” value in “CR-BSI trial: safety” (human, intravenous) was found to be 8.8%. Further, the “SAE considered to be related to study drug” value in “CR-BSI trial: safety” is on record as “one SAE”. In addition, the Kass is 690000 M⁻¹ in data set [3] (T 10 ° C., [HSA] 0 μM); 340000 M⁻¹ and 360000 M⁻¹ in data set [3] (T 25 ° C., [HSA] 0 μM); 290000 M⁻¹ in data set [3] (T 25 ° C., with HSA 513 μM). Also, in [3] (absence of serum proteins), the “binding to dipeptide (D-Ala-D-Ala) or to Lys-D-Ala-D-Lactate” value is on record as “no evidence of binding”. Further, the Kd in [3] (T 10 ° C., [HSA] 0 μM) was 1450 nM; in [3] (T 25 ° C., [HSA] 0 μM) it was 2940 nM and 2780 nM; in [3] (T 25 ° C., with HSA 513 μM), 3450 nM. Further, the ED50 (as a rule, the midpoint of the dose-response relation) in the data set on Staph. aureus (MRSA) is 1 mg/kg; in the data set on Staph. aureus (MSSA), 1.7 mg/kg. For the same compound, the “overall response success rate” value in data set [6] worked out at 50.0%. Moreover, the “Quality control range of MICs for reference strains” value with gram positive bacteria [7] (setting [15]) is “^2VA 1-4 mg/L”; in the data set with gram positive bacteria [7] (setting [16]), “^1VA 0.5-2 mg/L”.

For Teicoplanin, in data set [8], the “multimers in solution (ESI-MS)” value is “does not show multimeric complexes”. In addition, the “Calculated percent Binding” value is 98.3% at human albumin (antibiotic 1 μM); 98.3% on human albumin (antibiotic 10 μM); 98.0% at human albumin (antibiotic 100 μM); 9.6% in the data set on human α-glycoprotein (antibiotic 1 μM); 9.1% in the data set with human α-glycoprotein (antibiotic 10 μM); 6.0% with human α-glycoprotein (antibiotic 100 μM). The “apparent binding affinity (Ka)” value on human albumin (Human albumin, 25° C., pH 7.4) was 0.96 (±0.08) ×10^5 M^−1; at human α-glycoprotein (α-glycoprotein, 25° C.) it was 0.07 (±0.01) ×10^5 M^−1.

Turning to `CN[C@H]1C(=O)N[C@@H]2Cc3ccc(cc3)Oc3cc4cc(c3O[C@@H]3O[C@H](C(=O)O)[C@@H](O)[C@H](O)[C@H]3NC(=O)CCCCCCCCC(C)C)Oc3ccc(cc3Cl)[C@@H](O)[C@@H]3NC(=O)[C@H](NC(=O)[C@@H]4NC(=O)[C@H](NC2=O)c2cc(cc(O)c2Cl)Oc2cc1ccc2O)c1ccc(O)c(c1)-c1c(O[C@H]2O[C@H](CO)[C@@H](O)[C@H](O)[C@@H]2O)cc(O)cc1[C@@H](C(=O)NCCCN(C)C)NC3=O` [isoB0], the MIC was above 64 mg/L in [1] (setting [9]); “≦0.06 mg/L” in data set [4] (Bacillus subtilis ATCC 6633); 0.25 µg/mL (≈ 0.138 µM) in [4] (setting [15]); 0.25 µg/mL (≈ 0.138 µM) in data set [4] (setting [10]); 0.25 µg/mL (≈ 0.138 µM) in data set [4] (setting [16]); 16 µg/mL in data set [4] (S. aureus Smith + 30% BS). The MIC in data set [4] (S. epidermidis ATCC 12228) was 0.125 µg/mL (≈ 0.0688 µM); in data set [4] (S. pneumoniae Felton UC41) it was 0.125 µg/mL (≈ 0.0688 µM); in data set [4] (Staphylococcus aureus Smith ATCC 19636), 0.5 µg/mL (≈ 0.275 µM); in data set [4] (Streptococcus pyogenes SKF13400) it was 0.06 µg/mL (≈ 0.033 µM); in [5] (E. coli ATCC25922 ref. strain), 64 µg/mL (≈ 35.2 µM); in data set [5] (Escherichia coli SKF 12140) it was 64 µg/mL (≈ 35.2 µM). For the same compound, the MIC in data set [5] (Proteus vulgaris ATCC 881) and in data set [5] (Pseudomonas aeruginosas ATCC 10145) was above 64 µg/mL each time. Moreover, the “activity against a panel of gram-positive bacteria” value in [4] is given as “very similar to dalbavancin”.
